Data taken from patent US5908852A, “1,3,5 trisubstituted pyrazole compounds for treatment of inflammation” (G. D. Searle & Co., priority 1996, dated 1999).

What was measured:
Human COX I = Human COX I (Homo sapiens, UniProt P23219); assay: biochemical; conditions: recombinant enzyme, CHAPS-solubilized insect cell membranes; arachidonic acid 10 μM; pre-incubation 10-20 minutes; pH 8.0; read-out: Human COX I ID50
Procedure: (§1) Recombinant baculoviruses were isolated by transfecting 4 μg of baculovirus transfer vector DNA into SF9 insect cells ([…]) along with 200 ng of linearized baculovirus plasmid DNA by the calcium phosphate method. See M. D. Summers and G. E. Smith, A Manual of Methods for Baculovirus Vectors and Insect Cell Culture Procedures, Texas Agric. Exp. Station Bull. […] Recombinant viruses were purified by three rounds of plaque purification and high titer (10E7-10E8 pfu/ml) stocks of virus were prepared. For large scale production, SF9 insect cells were infected in 10 liter fermentors (0.5×10^6 /ml) with the recombinant baculovirus stock such that the multiplicity of infection was 0.1. After 72 hours the cells were centrifuged and the cell pellet homogenized in Tris/Sucrose (50 mM: 25%, pH 8.0) containing 1% 3-[(3-cholamidopropyl)dimethylammonio]-1-propanesulfonate (CHAPS). The homogenate was centrifuged at 10,000×G for 30 minutes, and the resultant supernatant was stored at -80° C. before being assayed for COX activity.
COX activity was assayed as PGE2 formed/μg protein/time using an ELISA to detect the prostaglandin released. CHAPS-solubilized insect cell membranes containing the appropriate COX enzyme were incubated in a potassium phosphate buffer (50 mM, pH 8.0) containing epinephrine, phenol, and heme with the addition of arachidonic acid (10 μM). Compounds were pre-incubated with the enzyme for 10-20 minutes prior to the addition of arachidonic acid. […] The PGE2 formed was measured by standard ELISA technology (Cayman Chemical).

Human COX II = molecular target: T1, Human COX II (Homo sapiens, UniProt P35354); assay: COX II activity in vitro (PGE2 formed, ELISA); format: biochemical; conditions: recombinant enzyme, CHAPS-solubilized insect cell membranes; arachidonic acid 10 μM; pre-incubation 10-20 minutes; pH 8.0; read-out: Human COX II ID50
T1 construct: A 2.0 kb fragment containing the coding region of either human or murine COX-I or human or murine COX-II was cloned; made in house; host or cells: SF9 insect cells infected with recombinant baculovirus (transfer vector pVL1393); CHAPS-solubilized preparation
T1 sequence (P35354 18-604): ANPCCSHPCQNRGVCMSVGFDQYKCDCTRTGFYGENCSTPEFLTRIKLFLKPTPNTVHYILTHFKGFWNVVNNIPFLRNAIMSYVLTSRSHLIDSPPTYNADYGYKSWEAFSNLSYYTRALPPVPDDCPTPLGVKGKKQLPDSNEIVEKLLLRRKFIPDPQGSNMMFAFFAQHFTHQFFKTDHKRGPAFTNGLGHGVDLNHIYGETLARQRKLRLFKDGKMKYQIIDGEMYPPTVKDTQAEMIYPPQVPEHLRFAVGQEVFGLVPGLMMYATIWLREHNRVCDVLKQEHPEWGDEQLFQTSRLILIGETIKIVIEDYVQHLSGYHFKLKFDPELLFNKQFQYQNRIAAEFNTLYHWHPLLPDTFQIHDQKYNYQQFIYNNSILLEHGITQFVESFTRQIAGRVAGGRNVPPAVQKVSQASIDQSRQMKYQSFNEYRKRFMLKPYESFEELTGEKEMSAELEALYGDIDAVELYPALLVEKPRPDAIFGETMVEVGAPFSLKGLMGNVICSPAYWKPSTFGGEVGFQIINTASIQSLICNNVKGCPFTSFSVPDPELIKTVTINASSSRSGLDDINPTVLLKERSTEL
Procedure: as §1
COX activity was assayed as PGE2 formed/μg protein/time using an ELISA to detect the prostaglandin released. […] The PGE2 formed was measured by standard ELISA technology (Cayman Chemical).

Chain of Human COX I (P23219 24-599): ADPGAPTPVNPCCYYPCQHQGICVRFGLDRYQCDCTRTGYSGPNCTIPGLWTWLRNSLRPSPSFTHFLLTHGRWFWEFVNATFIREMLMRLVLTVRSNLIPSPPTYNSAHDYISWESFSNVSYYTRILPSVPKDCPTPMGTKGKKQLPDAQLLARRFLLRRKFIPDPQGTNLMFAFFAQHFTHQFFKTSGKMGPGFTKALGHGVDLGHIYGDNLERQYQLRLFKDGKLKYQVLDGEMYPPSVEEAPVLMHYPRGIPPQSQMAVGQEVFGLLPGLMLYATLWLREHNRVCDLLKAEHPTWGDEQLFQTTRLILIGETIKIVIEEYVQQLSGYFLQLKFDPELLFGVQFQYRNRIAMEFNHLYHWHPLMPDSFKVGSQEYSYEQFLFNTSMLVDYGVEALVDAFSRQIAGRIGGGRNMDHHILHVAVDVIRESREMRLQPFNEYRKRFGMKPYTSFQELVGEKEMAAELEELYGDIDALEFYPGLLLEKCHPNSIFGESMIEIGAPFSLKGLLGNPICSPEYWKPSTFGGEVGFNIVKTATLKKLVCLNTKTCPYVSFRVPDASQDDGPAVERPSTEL

| SMILES | IC50 (Human COX I) [µM] | IC50 (Human COX II) [µM] |
| --- | --- | --- |
| Cc1ccc(-c2cc(-c3ccc(C)cc3)n(-c3ccc(S(N)(=O)=O)cc3)n2)cc1 [Example 2a, 4-(3,5-bis(4-methylphenyl)-1H-pyrazol-1-yl)benzenesulfonamide] | 13.6 | – |
| NS(=O)(=O)c1ccc(-n2nc(-c3ccccc3)cc2-c2ccc(Cl)cc2)cc1 [Example 2b, 4-(5-(4-chlorophenyl)-3-phenyl-1H-pyrazol-1-yl)benzenesulfonamide] | 19.1 | – |
| NS(=O)(=O)c1ccc(-n2nc(-c3ccc([N+](=O)[O-])cc3)cc2-c2ccc(Cl)cc2)cc1 [Example 2e, 4-(5-(4-chlorophenyl)-3-(4-nitrophenyl)-1H-pyrazol-1-yl)benzenesulfonamide] | > 100 | 0.7 |

Compounds with a lower IC50 (Human COX I), results first:

| IC50 (Human COX I) [µM] | IC50 (Human COX II) [µM] | SMILES |
| --- | --- | --- |
| 12.7 | – | Cc1ccc(-c2cc(-c3ccc(Cl)cc3)n(-c3ccc(S(N)(=O)=O)cc3)n2)cc1 [Example 2d, 4-(5-(4-chlorophenyl)-3-(4-methylphenyl)-1H-pyrazol-1-yl)benzenesulfonamide] |
| 2.1 | 0.5 | COc1ccc(-c2cc(-c3ccc(OC)cc3)n(-c3ccc(S(N)(=O)=O)cc3)n2)cc1 [Example 2c, 4-(3,5-bis(4-methoxyphenyl)-1H-pyrazol-1-yl)benzenesulfonamide] |
